Test results: US20230075368A1, “IDENTIFICATION OF AN EGFR-BIN3 PATHWAY THAT ACTIVELY SUPPRESSES INVASION AND REDUCES TUMOR SIZE IN GLIOBLASTOMA” (The United States Govemment as represented by the …, priority 2020, published 2023)

Tests used:
GBM12 and GBM22 cells = experiment: Single cell migration assay on nanoplates; format: cell-based, human
Text: For time-lapse analysis of individual cell movement, nano-ridge constructed of transparent poly(urethane acrylate) (PUA), and fabricated using UV-assisted capillary lithography as described by Kim et al. were used (Kim, D et al. (2009) Mechanosensitivity of fibroblast cell shape and movement to anisotropic substratum topography gradients, Biomaterials 30: 5433-5444; Kim, et al. (2009) Guided Cell Migration on Microtextured Substrates with Variable Local Density and Anisotropy, Adv Funct Mater 19: 1579-1586; Garzon-Muvdi, et al. (2012) Regulation of brain tumor dispersal by NKCC1 through a novel role in focal adhesion regulation, PLoS Biol 10: e1001320). The 24 well NanoSurface plate was purchased from Curi Bio (Seattle, Wash.). Prior to cell seeding, nanoridges surfaces were coated with laminin (3 μg/cm^2, Sigma-Aldrich). Cells were plated at low density (1×10^4 cells/ml) and incubated at 37° C. overnight. The following day, cells were washed with PBS and cultured in DMEM supplemented with 1% FBS and were ready for time-lapse imaging. To measure cell proliferation, 6 hours after plating Histone2B-GFP (C10594, ThermoFisher) was added for nuclear staining overnight. The next day cells were incubated with a mixture of BioTracker® NTP-Transporter Molecule (SCT064, Sigma Aldrich) and Cy3-dUTP (50-190-5459, ThermoFisher) for 10 minutes and then replaced with 1% FBS media containing HB2B2-GFP. For time-lapse imaging, the plate was mounted onto the stage of Andor spinning disk confocal microscope equipped with temperature and CO2 controlling environmental chamber. […] Both fluorescent and bright-field images were taken every 30 minutes for 24 hours using a 10× objective. ImageJ manual track Plugin was used to track the movement of cells frame by frame.
Analysis of individual cellular movement was performed as described elsewhere herein. EGF (50 ng/ml) or vehicle was added 6 hours after the start of time-lapse imaging (n=63 cells). Vehicle was used as a negative control (n=67 cells). Single cell migration speed was calculated using Manual tracking Plugin in ImageJ. […] Cell migration velocity was calculated over a period of 6 hours. […] Analysis of individual cell proliferation was performed as described elsewhere herein. EGF (50 ng/ml) was added 6 hours after the start of time-lapse imaging (n=56). Vehicle was used as a negative control (n=64). Representative static time-lapse Cy3 and H2B-GFP staining images of the same cell before and after addition of EGF are shown in FIG. 25E. […] Each point represents the percentage of Ki positive cells in total 100 cells. […] Cell migration velocity was calculated over a period of 6 hours (n=81). Vehicle was used as a negative control (n=89). […] Scale bar=[…]. Data are represented as media ±5-95% interquartile range (FIG. 25B and FIG. 25K) or mean±SEM (FIG. 25D and FIG. 25M). ***P<0.001, […], n.s. not significant, Mann-Whitney test was used for pair comparison. Two-way ANOVA test was used to analyze Cy3 intensity data in FIG. 25D and FIG. 25M. The results are representative of two independently repeated experiments.
Single-cell migration analysis was performed as described for FIG. 25A above (Vehicle group, n=57, EGF group, n=74). […] Cell migration velocity was calculated over a period of 6 hours. Vehicle was used as a negative control (n=57). […] Analysis of individual cell proliferation was performed as described elsewhere herein. […] Cell migration velocity was calculated over a period of 6 hours. […]

DOCK7 and BIN3 = experiment: Co-immunoprecipitation of BIN3 and DOCK7; format: cell-based, human; conditions: 24 hours
Experimental: Cells were treated with 50 ng/ml EGF for 24 hours, BIN3 (sc-514396AC, Santa Cruz Biotechnology) or mouse IgG antibodies were incubated with whole cell lysates overnight at 4° C., and the mixtures were then incubated with 40 μl protein A/G slurry beads (Sigma) for 2 hours at 4° C. Beads were washed three times with lysis buffer, and immunoprecipitates were boiled in loading buffer for 5 min, subjected to SDS-PAGE followed by Coomassie stain. Bands were cut from the gel and submitted for Mass Spectrometry Facility, UTSW, Dallas. To identify BIN3 and DOCK7 complexes in PDXs upon EGF treatment, cell lysates were immunoprecipitated with DOCK7 antibody or BIN3 antibody, and analyzed by Western blot using BIN3 antibody.
Referring to FIG. 9A-S, BIN3 reduces invasion by interacting with DOCK7. Heat map of spectral counts of the top BIN3 interacting proteins identified by mass spectrometry in GBM12 treated with EGF (50 ng/ml) is shown in FIG. 9A. Western blot analysis of immunoprecipitated extracts from EGF-treated GBM12, GBM6, and GBM26 is illustrated in FIG. 9B. Cell lysates from cells treated with EGF (50 ng/ml) or control vehicle for 24 hours were immunoprecipitated by DOCK7 antibody, followed by Western blot for BIN3. Western blot analysis of BIN3 antibody immunoprecipitated extracts from GBM12, GBM6, and GBM26 24 hours after EGF or vehicle treatment is illustrated in FIG. 9C. […]

C[C@@H]1CCN(C(=O)CC#N)C[C@@H]1N(C)c1ncnc2[nH]ccc12 [tofacitinib]
single cell migration (GBM12 and GBM22 cells; tofacitinib 1 μM, GBM12): decreased invasion
single cell proliferation (Cy3) (GBM12 and GBM22 cells; tofacitinib 1 μM, GBM12): increased proliferation
single cell migration and proliferation (GBM12 and GBM22 cells; tofacitinib 1 μM, second PDX line (GBM22)): confirmed

EGF: Recombinant human EGF (AF-100) from Peprotech; EGFR ligand
physical association between DOCK7 and BIN3 (DOCK7 and BIN3; EGF 50 ng/ml, GBM12, GBM6, GBM26): significantly induced a physical association
single cell migration (GBM12 and GBM22 cells; EGF 50 ng/ml, GBM12): significant slowing of migration
single cell proliferation (Cy3 linked marker, Ki-67) (GBM12 and GBM22 cells; EGF 50 ng/ml, GBM12): induces proliferation

HGF: the ligand for Met
association between BIN3 and DOCK7 (DOCK7 and BIN3; HGF 20 ng/ml, GBM12 and GBM6): not detected
